Measurements published in US12702665B2, “ExoVII inhibitor and quinolone antibiotic combination useful for treating bacterial infection” (The United States of America, As Represented by the …, priority 2020, dated 2026).
pIC50: −log10 of the molar value.

Assays:
[1] = test system: E. coli strains carrying the gyrA-S83L mutation; experiment: MIC of ciprofloxacin (MIC test strips), quinolone-resistant gyrA-S83L strains; type: cell-based
[2] = test system: E. coli pgyrAHis transformants deficient in ExoVII; experiment: Spotting assay on LB plates containing quinolones; type: cell-based; details: ΔxseA or ΔxseB pgyrAHis transformants vs wild-type
Text: FIG. 8A, FIG. 8B, and FIG. 8C. Expression of a functional GyrAHis has no impact on sensitivities of E. coli strains to quinolones. FIG. 8A. Transformants of a single-copy plasmid bearing the gyrA gene including its endogenous promoter and a C-terminal His-tag (pgyrAHis) were established in either the wild-type, ΔxseA or ΔxseB strains. […] The asterisk denotes a non-specific band. FIG. 8B. Immunoblotting of the same transformants as in FIG. 8A, probed with anti-GyrA antibody (Abcam). FIG. 8C. […] Two technical replicates are shown.
Cell killing assays were carried out as previously described. Briefly, transformants harboring pBAD/Thio, pYtopA or pYtopA-R327W were grown in LB with 2% glucose and 50 μg/mL carbenicillin overnight and diluted 1:100 in LB with 50 μg/mL carbenicillin and grown to OD600 of 0.4. YTop1 or YTop1-R327W were induced by addition of 0.2% arabinose for 0.5-2 hrs. Post-induction cultures were then serially diluted and spotted onto LB plates with 2% glucose and 50 μg/mL carbenicillin and incubated at 37° C. overnight. Alternatively, exponentially growing transformants were serially diluted as indicated and spotted on LB plates containing 50 μg/mL carbenicillin and indicated concentrations of arabinose and incubated at 37° C. overnight.

ExoVII = biological target: T1, ExoVII (Escherichia coli, UniProt P04994); experiment: In-vitro ExoVII cleavage assay (IC50 determination); type: biochemical
T1 construct: purchased ThermoFisher or NEB
Experimental: FIG. 13A, FIG. 13B, FIG. 13C, and FIG. 13D. CPID is a specific ExoVII inhibitor. FIG. 13A. […] FIG. 13B. […] FIG. 13C. […] Representative gel image and quantification are shown. IC50 value was averaged from 5 independent experiments. FIG. 13D. CPID is not toxic to HEK293 or MEF cells as determined by relative confluency of seeded cells after 72-hour treatment at the indicated CPID concentration.
ExoVII reactions were incubated at 37° C. for 1 or 2 hrs followed by inactivation at 55° C. for 30 mins before terminated by addition of 20 μL formamide gel loading buffer (96% (v/v) formamide, 10 mM ethylenediaminetetraacetic acid, 1% (w/v) xylene cyanol and 1% (w/v) bromophenol blue). For IC50 determination, ExoVII was preincubated with the inhibitor at 25° C. for 5 mins before addition of equal volume of DNA solution and the reaction continued for another 20-30 mins. The 10 μL reaction contained 0.025 U/μL ExoVII, 20-100 nM internally ratio-labeled DNA substrate, and indicated inhibitor concentration in buffer with 50 mM potassium acetate, 20 mM trisacetate (pH=7.9), 10 mM magnesium acetate, 1 mM DTT and 10% (v/v) DMSO. The percentage of products in the presence of inhibitor was normalized to that of control reaction without any inhibitors, and resulting plot was fitted to a nonlinear regression function in Prism. DNA gyrase was purified as previously described.

[3] = test system: Staphylococcus aureus strain HG003; experiment: Synergy with ciprofloxacin in Staphylococcus aureus cultures (OD600 growth); type: cell-based; details: gram-positive
Experimental: (§1) OD600 was measured at the end of 4-hr incubation at 37° C. shaking at 225 rpm and cell densities were normalized to samples without any drug treatment. Toxicity of compounds were measured by treating either HEK293 or MEF (1000 cells in 96-well plates seeded 24-hr prior) with indicated concentrations of ExoVII inhibitor for 72 hours. The samples were imaged with a Cytation 5 (BioTek) and the confluency of each well were normalized to untreated samples.

WT-pgyrA-S83L = experiment: Synergy with ciprofloxacin in quinolone-resistant strain (OD600 growth); type: cell-based, E. coli
Experimental: as §1

ΔxseA-pgyrA-S83L = experiment: Synergy with ciprofloxacin in quinolone-resistant ExoVII-deficient strain (OD600 growth); type: cell-based, E. coli
Experimental: as §1

ΔxseB-pgyrA-S83L = experiment: as above; type: cell-based, E. coli
Experimental: as §1

T1 sequence (P04994 whole entry): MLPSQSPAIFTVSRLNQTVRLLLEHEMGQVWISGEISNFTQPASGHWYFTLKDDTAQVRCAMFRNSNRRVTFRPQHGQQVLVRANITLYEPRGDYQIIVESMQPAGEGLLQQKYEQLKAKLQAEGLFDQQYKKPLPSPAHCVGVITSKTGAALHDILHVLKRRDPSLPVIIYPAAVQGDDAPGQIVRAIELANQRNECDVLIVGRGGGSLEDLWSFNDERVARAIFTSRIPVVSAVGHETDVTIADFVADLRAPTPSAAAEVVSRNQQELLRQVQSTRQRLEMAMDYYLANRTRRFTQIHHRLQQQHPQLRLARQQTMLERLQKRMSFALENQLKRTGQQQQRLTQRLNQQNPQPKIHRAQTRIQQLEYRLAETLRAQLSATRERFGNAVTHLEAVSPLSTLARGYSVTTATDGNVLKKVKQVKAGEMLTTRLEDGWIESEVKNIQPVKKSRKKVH
T1 sequence (P0A8G9 whole entry, further chain): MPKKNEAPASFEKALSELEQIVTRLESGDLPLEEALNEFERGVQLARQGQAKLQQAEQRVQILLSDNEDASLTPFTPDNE

In the case of `O=C(O)c1cn(C2CC2)c2cc(N3CCNCC3)c(F)cc2c1=O` [ciprofloxacin], the “Decrease in ciprofloxacin MIC on inactivating either subunit of ExoVII” value ([1]; gyrA-S83L background) was ~ 2 fold, the “Increase in ciprofloxacin MIC by gyrA-S83L” value ([1]; gyrA-S83L vs wild-type gyrA) was 10 fold and the “Sensitivity of ExoVII-deficient transformants to quinolones” value [2] was “hypersensitivity”.
For `O=C1Cc2ccc(-c3cccc(Cl)c3)cc2C(=O)N1` [CPID, 7-(3-chlorophenyl)-1,3(2H,4H)-Isoquinolinedione], the pIC50 (ExoVII) was 5.61, the Synergy with ciprofloxacin [3] was “clear synergy” and the Synergy with ciprofloxacin (WT-pgyrA-S83L) was “synergistic”. For the same compound, the Synergy with ciprofloxacin (ΔxseA-pgyrA-S83L) was “not synergistic” and the Synergy with ciprofloxacin (ΔxseB-pgyrA-S83L) was “not synergistic”.
For `CCn1cc(C(=O)O)c(=O)c2ccc(C)nc21` [nalidixic acid], the “Sensitivity of ExoVII-deficient transformants to quinolones” value [2] was “hypersensitivity”.
